How the values were obtained:
F508delCFTR [1] = target: T1, F508delCFTR (Homo sapiens, UniProt P13569, DEL508-508); experiment: Cell Surface Expression-Horse Radish Peroxidase (CSE-HRP) assay, test compound with co-corrector; type: cell-based; conditions: for Maximum % activity (with co-corrector): maximum at any tested concentration;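 on Maximum % activity (with co-corrector): percent of 2 µM positive control corrector over DMSO; co-corrector is that same compound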
T1 construct: expressed in transfected cells; host or cells: CFBE41o- human lung-derived epithelial cells (CFBE41o-F508delCFTR-HRP), doxycycline-inducible
Method in brief: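 CFBE41o- cells expressing F508delCFTR with HRP in the fourth exofacial loop, induced with 0.5 μg/mL doxycycline for 72 h, then treated 18-24 h at 33° C. with compound (8 points, top 20 μM, 3-fold) plus 2 μM co-corrector. Surface HRP read by luminol luminescence; activity normalised to positive control, EC50 from variable-slope sigmoidal fit.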

F508delCFTR [2] = target: T1, F508delCFTR; experiment: Cell Surface Expression-Horse Radish Peroxidase (CSE-HRP) assay, test compound without co-corrector; type: cell-based; conditions: for EC50: test compound without co-corrector; for Emax: maximum at any tested concentration, without co-corrector;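 on Emax: percent of on-plate 2 µM positive control corrector response over DMSO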
Method in brief: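 CFBE41o- cells expressing F508delCFTR with HRP in the fourth exofacial loop, induced with 0.5 μg/mL doxycycline for 72 h at 37° C, then exposed to compound alone for 18-24 h at 33° C, 8-point 3-fold series from 20 μM. Surface HRP read by luminol luminescence, normalized to positive corrector control versus DMSO; EC50 from variable-slope sigmoidal fit of three replicate plates.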

[3] = CSE-HRP assay, test compound with 2 μM co-corrector
[4] = normalized to on-plate positive control, with 2 μM co-corrector
[5] = normalized to on-plate positive control
[6] = normalized to positive control, with 2 μM co-corrector

T1 sequence (P13569 with tags, fused parts or gaps DEL508-508): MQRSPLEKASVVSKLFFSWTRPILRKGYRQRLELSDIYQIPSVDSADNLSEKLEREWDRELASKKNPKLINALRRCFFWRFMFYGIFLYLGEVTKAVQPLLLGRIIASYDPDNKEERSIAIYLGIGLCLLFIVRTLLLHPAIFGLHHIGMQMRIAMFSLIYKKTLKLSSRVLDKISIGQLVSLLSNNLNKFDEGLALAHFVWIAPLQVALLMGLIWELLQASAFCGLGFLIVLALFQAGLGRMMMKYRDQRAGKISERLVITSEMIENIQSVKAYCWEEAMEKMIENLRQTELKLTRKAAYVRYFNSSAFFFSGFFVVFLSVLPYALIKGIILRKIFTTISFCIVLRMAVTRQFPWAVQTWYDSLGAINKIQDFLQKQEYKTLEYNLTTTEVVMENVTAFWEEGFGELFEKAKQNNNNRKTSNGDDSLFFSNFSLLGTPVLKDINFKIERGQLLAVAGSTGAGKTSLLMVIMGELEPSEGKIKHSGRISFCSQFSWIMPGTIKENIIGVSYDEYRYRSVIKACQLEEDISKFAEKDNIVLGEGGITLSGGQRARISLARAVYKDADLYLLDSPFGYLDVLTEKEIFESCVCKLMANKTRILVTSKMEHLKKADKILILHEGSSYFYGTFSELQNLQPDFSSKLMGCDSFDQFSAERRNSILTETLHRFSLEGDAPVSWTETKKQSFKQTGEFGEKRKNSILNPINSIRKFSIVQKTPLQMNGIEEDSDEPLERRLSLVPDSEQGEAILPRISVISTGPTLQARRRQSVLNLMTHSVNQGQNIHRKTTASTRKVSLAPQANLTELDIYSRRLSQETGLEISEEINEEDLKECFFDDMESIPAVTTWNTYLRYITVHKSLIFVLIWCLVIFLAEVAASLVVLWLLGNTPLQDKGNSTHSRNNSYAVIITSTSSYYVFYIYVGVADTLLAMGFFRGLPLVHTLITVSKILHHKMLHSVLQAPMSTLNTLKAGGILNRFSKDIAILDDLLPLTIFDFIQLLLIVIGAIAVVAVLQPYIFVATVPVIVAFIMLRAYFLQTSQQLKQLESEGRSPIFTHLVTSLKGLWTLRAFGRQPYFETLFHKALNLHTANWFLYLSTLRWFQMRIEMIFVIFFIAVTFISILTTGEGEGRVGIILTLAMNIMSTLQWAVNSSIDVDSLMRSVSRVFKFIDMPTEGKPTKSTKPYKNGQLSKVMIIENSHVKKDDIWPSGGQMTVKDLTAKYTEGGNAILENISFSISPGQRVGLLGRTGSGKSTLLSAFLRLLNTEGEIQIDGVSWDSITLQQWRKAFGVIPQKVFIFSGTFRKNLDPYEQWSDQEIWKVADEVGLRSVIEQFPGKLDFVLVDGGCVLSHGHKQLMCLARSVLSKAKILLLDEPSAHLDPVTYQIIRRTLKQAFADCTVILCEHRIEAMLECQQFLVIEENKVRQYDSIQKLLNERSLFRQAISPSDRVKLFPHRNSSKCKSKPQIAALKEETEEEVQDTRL

SMILES | EC50 (F508delCFTR [1]; [3]) [µM] | Maximum % activity (with co-corrector) (F508delCFTR [1]; [4]) | EC50 (F508delCFTR [2]; CSE-HRP assay) [µM] | Emax (F508delCFTR [2]; [5]) [%] | Maximum % activity (with co-corrector) (F508delCFTR [1]; [6]) | EC50 (F508delCFTR [1]; with 2 μM co-corrector) [µM] | Emax (F508delCFTR [2]; normalized to positive control) [%] | EC50 (F508delCFTR [2]) [µM]
O=C(NS(=O)(=O)c1cccc2ccccc12)C1(CCN2CCCC2)CCc2c(Cl)cccc21 (stereo not shown) [Example III-111, 4-chloro-N-(naphthalene-1-sulfonyl)-1-[2-(pyrrolidin-1-yl)ethyl]-2,3-dihydro-1H-indene-1-carboxamide] | 3 to 10 | + (<150) | ≥ 10 | < 50 | – | – | – | –
COCCN(C)CCC1(C(=O)NS(=O)(=O)c2cccc3ccccc23)CCc2c(Cl)cccc21 (stereo not shown) [Example III-112, 4-chloro-1-{2-[(2-methoxyethyl)(methyl)amino]ethyl}-N-(naphthalene-1-sulfonyl)-2,3-dihydro-1H-indene-1-carboxamide] | 3 to 10 | ++ (≥150 and <350) | 3 to 10 | < 50 | – | – | – | –
CCC1(C(=O)N(C)S(=O)(=O)c2cccc3ccccc23)CCc2c(Cl)cccc21 (stereo not shown) [Example III-150, 4-chloro-1-ethyl-N-methyl-N-(naphthalene-1-sulfonyl)-2,3-dihydro-1H-indene-1-carboxamide] | ≥ 10 | + (<150) | ≥ 10 | < 50 | – | – | – | –
COCC1(C(=O)NS(=O)(=O)c2cccc3ccccc23)CCc2c(Cl)cccc21 (stereo not shown) [Example III-151, 4-chloro-1-(methoxymethyl)-N-(naphthalene-1-sulfonyl)-2,3-dihydro-1H-indene-1-carboxamide] | ≥ 10 | + (<150) | ≥ 10 | < 50 | – | – | – | –
N#CCC1(C(=O)NS(=O)(=O)c2cccc3ccccc23)CCc2c(Cl)cccc21 (stereo not shown) [Example III-155, 4-chloro-1-(cyanomethyl)-N-(naphthalene-1-sulfonyl)-2,3-dihydro-1H-indene-1-carboxamide] | 3 to 10 | ++ (≥150 and <350) | 3 to 10 | < 50 | – | – | – | –
N#CC1(C(=O)NS(=O)(=O)c2cccc3ccccc23)CCCc2cccc(Cl)c21 (stereo not shown) [Example III-157, 8-chloro-1-cyano-N-(naphthalene-1-sulfonyl)-1,2,3,4-tetrahydronaphthalene-1-carboxamide] | 3 to 10 | ++ (≥150 and <350) | ≥ 10 | < 50 | – | – | – | –
CC1(C(=O)NS(=O)(=O)c2ccccc2)CCc2c(Cl)cccc21 (stereo not shown) [II-1] | – | – | – | – | +++ (≥350) | 3 to 10 | 50 to 150 | 3 to 10
Cc1ccccc1S(=O)(=O)NC(=O)[C@@]1(C)CCc2ccc(Cl)cc21 [II-4] | – | – | – | – | ++ (≥150 and <350) | 3 to 10 | < 50 | 3 to 10
Cc1ccccc1S(=O)(=O)NC(=O)[C@]1(C)CCc2ccc(Cl)cc21 [II-5] | – | – | – | – | ++ (≥150 and <350) | < 3 | < 50 | 3 to 10
O=C(NS(=O)(=O)c1ccccc1Cl)C1CCc2c(Cl)cccc21 (stereo not shown) [II-6] | – | – | – | – | ++ (≥150 and <350) | 3 to 10 | 50 to 150 | 3 to 10
Cc1ccccc1S(=O)(=O)NC(=O)C1CCCc2ccccc21 (stereo not shown) [II-7] | – | – | – | – | ++ (≥150 and <350) | 3 to 10 | < 50 | 3 to 10
COc1cccc2c1CCCC2C(=O)NS(=O)(=O)c1ccccc1C (stereo not shown) [II-8] | – | – | – | – | ++ (≥150 and <350) | 3 to 10 | 50 to 150 | 3 to 10
COc1ccc2c(c1OC)CCCC2C(=O)NS(=O)(=O)c1ccccc1C (stereo not shown) [II-9] | – | – | – | – | ++ (≥150 and <350) | 3 to 10 | < 50 | ≥ 10
Cc1ccccc1S(=O)(=O)NC(=O)C1CCCc2cccc(Cl)c21 (stereo not shown) [II-10] | – | – | – | – | ++ (≥150 and <350) | 3 to 10 | 50 to 150 | 3 to 10
Cc1ccccc1S(=O)(=O)NC(=O)C1CCc2ccccc21 (stereo not shown) [II-11] | – | – | – | – | + (<150) | 3 to 10 | < 50 | ≥ 10
Cc1ccccc1S(=O)(=O)NC(=O)C1CCCc2cc(F)ccc21 (stereo not shown) [II-12] | – | – | – | – | ++ (≥150 and <350) | 3 to 10 | < 50 | 3 to 10
COc1cccc2c1CCC[C@H]2C(=O)NS(=O)(=O)c1ccccc1C [II-13] | – | – | – | – | +++ (≥350) | 3 to 10 | 50 to 150 | 3 to 10
Cc1ccccc1S(=O)(=O)NC(=O)[C@H]1CCCc2ccccc21 [II-14] | – | – | – | – | ++ (≥150 and <350) | 3 to 10 | < 50 | 3 to 10
COc1cc2c(cc1OC)C(C(=O)NS(=O)(=O)c1ccccc1C)CCC2 (stereo not shown) [II-15] | – | – | – | – | + (<150) | 3 to 10 | < 50 | ≥ 10
COc1cccc2c1CC(C(=O)NS(=O)(=O)c1ccccc1C)C2 (stereo not shown) [II-16] | – | – | – | – | ++ (≥150 and <350) | 3 to 10 | < 50 | 3 to 10

SMILES | EC50 (F508delCFTR [1]; [3]) [µM] | Maximum % activity (with co-corrector) (F508delCFTR [1]; [4]) | EC50 (F508delCFTR [2]; CSE-HRP assay) [µM] | Emax (F508delCFTR [2]; [5]) [%] | Maximum % activity (with co-corrector) (F508delCFTR [1]; [6]) | EC50 (F508delCFTR [1]; with 2 μM co-corrector) [µM] | Emax (F508delCFTR [2]; normalized to positive control) [%] | EC50 (F508delCFTR [2]) [µM]
Cc1ccccc1S(=O)(=O)NC(=O)[C@@H]1CCCc2ccccc21 [II-17] | – | – | – | – | ++ (≥150 and <350) | 3 to 10 | < 50 | 3 to 10
COc1ccc2c(c1)[C@@](C)(C(=O)NS(=O)(=O)c1ccccc1C)CC2 [II-18] | – | – | – | – | ++ (≥150 and <350) | 3 to 10 | < 50 | 3 to 10
Cc1ccccc1S(=O)(=O)NC(=O)C1(C)CCc2cccc(Cl)c21 (stereo not shown) [II-19] | – | – | – | – | ++ (≥150 and <350) | 3 to 10 | 50 to 150 | 3 to 10
Cc1ccccc1S(=O)(=O)NC(=O)C1(C)CCc2c1ccc(F)c2F (stereo not shown) [II-20] | – | – | – | – | ++ (≥150 and <350) | 3 to 10 | < 50 | 3 to 10
Cc1ccccc1S(=O)(=O)NC(=O)C1(C)CCc2ccccc21 (stereo not shown) [II-21] | – | – | – | – | ++ (≥150 and <350) | 3 to 10 | < 50 | 3 to 10
Cc1ccc2c(c1)CCC2(C)C(=O)NS(=O)(=O)c1ccccc1C (stereo not shown) [II-22] | – | – | – | – | ++ (≥150 and <350) | 3 to 10 | 50 to 150 | 3 to 10
CCc1ccccc1S(=O)(=O)NC(=O)C1CCc2c(OC)cccc21 (stereo not shown) [II-24] | – | – | – | – | ++ (≥150 and <350) | 3 to 10 | < 50 | 3 to 10
CCc1ccccc1S(=O)(=O)NC(=O)C1CCc2c(Cl)cccc21 (stereo not shown) [II-25] | – | – | – | – | ++ (≥150 and <350) | 3 to 10 | 50 to 150 | 3 to 10
O=C(NS(=O)(=O)c1cccc(Cl)c1)C1CCc2c(Cl)cccc21 (stereo not shown) [II-26] | – | – | – | – | ++ (≥150 and <350) | 3 to 10 | < 50 | ≥ 10
O=C(NS(=O)(=O)c1ccc(Cl)cc1)C1CCc2c(Cl)cccc21 (stereo not shown) [II-27] | – | – | – | – | ++ (≥150 and <350) | 3 to 10 | < 50 | ≥ 10
O=C(NS(=O)(=O)c1ccccc1F)C1CCc2c(Cl)cccc21 (stereo not shown) [II-28] | – | – | – | – | ++ (≥150 and <350) | 3 to 10 | < 50 | 3 to 10
COc1cccc2c1CCC2C(=O)NS(=O)(=O)c1ccccc1Cl (stereo not shown) [II-30] | – | – | – | – | ++ (≥150 and <350) | 3 to 10 | < 50 | 3 to 10
COc1cccc2c1CCC2C(=O)NS(=O)(=O)c1ccccc1[N+](=O)[O-] (stereo not shown) [II-31] | – | – | – | – | ++ (≥150 and <350) | 3 to 10 | < 50 | 3 to 10
CCC1(C(=O)NS(=O)(=O)c2ccccc2C)CCc2c(Cl)cccc21 (stereo not shown) [II-32] | – | – | – | – | ++ (≥150 and <350) | < 3 | < 50 | < 3
Cc1ccccc1S(=O)(=O)NC(=O)C1CCc2c(Br)cccc21 (stereo not shown) [II-33] | – | – | – | – | +++ (≥350) | 3 to 10 | 50 to 150 | 3 to 10
Cc1ccccc1S(=O)(=O)NC(=O)C1CCc2c(C3=CCOCC3)cccc21 (stereo not shown) [II-34] | – | – | – | – | ++ (≥150 and <350) | 3 to 10 | < 50 | 3 to 10
Cc1ccccc1S(=O)(=O)NC(=O)C1CCc2c(C3CCC3)cccc21 (stereo not shown) [II-35] | – | – | – | – | ++ (≥150 and <350) | 3 to 10 | 50 to 150 | 3 to 10
COc1cccc2c1CCC2C(=O)NS(=O)(=O)c1ccccc1C(F)(F)F (stereo not shown) [II-37] | – | – | – | – | ++ (≥150 and <350) | 3 to 10 | < 50 | 3 to 10
COc1cccc2c1CCC2C(=O)NS(=O)(=O)c1ccccc1F (stereo not shown) [II-38] | – | – | – | – | ++ (≥150 and <350) | 3 to 10 | < 50 | ≥ 10
COc1cccc2c1CCC2C(=O)NS(=O)(=O)c1ccccc1Br (stereo not shown) [II-39] | – | – | – | – | ++ (≥150 and <350) | 3 to 10 | < 50 | 3 to 10
